From patent US20140163096A1, “METHODS AND COMPOSITIONS FOR TREATING HIV-ASSOCIATED DIARRHEA” (priority 2012, published 2014)

Columns and labels:
[1] = human, in vivo; cited from earlier work
mice = experiment: 13-week oral toxicity study in mice; conditions: mouse, in vivo
Procedure: One additional group of 15 animals/sex served as the control and received the vehicle, purified water.
Observations for morbidity, mortality, injury, and the availability of food and water were conducted twice daily for all animals. Detailed clinical observations for clinical signs were conducted weekly on all main study animals. Body weights were measured and recorded weekly on all animals. Food consumption was measured and recorded weekly on all main study animals. Ophthalmoscopic examinations were conducted pretest and prior to necropsy for all main study animals. Blood samples for clinical pathology evaluations were collected from main study animals in extremis and at termination. […] Beginning on Day 7, a limited gross necropsy examination was performed on any TK animal euthanized in extremis or found dead in an effort to determine the cause of death.

rat bone marrow = conditions: in vivo
[2] = Bacterial reverse mutation assay
HIV-positive patients = conditions: human, in vivo

For Crofelemer, the systemic bioavailability [1] is given as “virtually no systemic bioavailability”, the “clinical pathology, organ weight, and macroscopic effects” value (mice) is given as “observed in both sexes at 1200 mg/kg/day” and the food consumption effects (mice) is given as “evident at 40 mg/kg/day in females and ≧400 mg/kg/day in both sexes”. The “rat bone marrow micronucleus assay result” value (rat bone marrow) was “negative”, the “bacterial reverse mutation assay result” value [2] was “negative” and the “adverse events reported in greater than or equal to 1% and less than 2% of patients, at a higher incidence than placebo” value (HIV-positive patients) was “dizziness, muscle spasms, myalgia, and pain in extremity”. For the same substance, the “adverse reactions in patients who received doses greater than 250 mg daily” value (HIV-positive patients) was “similar” and the “safety profile by baseline CD4 cell count” value (HIV-positive patients) was “similar”.
